The values that follow come from EP4454666A1, “IN VIVO IMAGING OF AN ALS BIOMARKER AND MEANS THEREFOR” (Société de Commercialisation des Produits de la Recherche …, priority 2023, dated 2024).

One assay relates to mSOD1 aggregates. The experiment in a line: PET imaging of spinal cord mSOD1 aggregates (spots). In kind it is in vivo, mice.
Assay [1] concerns the target T1, denatured human SOD1 (human, UniProt P00441 2-154).
T1 construct: also called misfolded SOD1; mSOD1
The assay can be described thus: direct ELISA on denatured human SOD1 (Fig. 6A).

Assay [2] deals with T1, denatured human SOD1. The experiment in a line: direct ELISA on denatured human SOD1 (mSOD1).
Assay [3] deals with T1, denatured human SOD1. The assay can be described thus: ELISA on misfolded SOD1 (refers to Fig. 6).

T1 sequence (P00441 2-154 limits assumed): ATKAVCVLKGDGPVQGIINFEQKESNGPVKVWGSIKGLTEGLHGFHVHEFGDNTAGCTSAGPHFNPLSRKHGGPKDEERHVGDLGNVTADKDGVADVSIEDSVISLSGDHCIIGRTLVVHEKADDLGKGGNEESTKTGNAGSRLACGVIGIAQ
Description for mSOD1 aggregates: Under isoflurane anesthesia. […] Imaging days post administration of the radiotracer were optimized as the first results were collected the last groups being imaged only at days 7 and 10. Once the radiotracer administrated, the mouse was placed in its cage to recuperate from anesthesia and returned to the housing facility.
PET imaging was performed on days 7 and 10 following the administration of the radiotracer. Imaging was done on a LabPET-2 PET scanner (https://imagingrt.com/. Bore size: 72 mm. Axial FOV: 50 mm. Transaxial FOV: 60 mm. Spatial resolution: 0.74 mm (Isotropic at 5 mm from center). Detection efficiency (250-650 keV): 3.3% dedicated to small animal imaging. Preparation and PET imaging was done under isoflurane anesthesia delivered through a nose cone (Induction 2-3% isoflurane then 1 - 2.5%. 1-1.5 L of oxygen/min) the level of anesthesia being modulated if required during PET imaging. An ophthalmic gel was applied to the eyes to prevent eye dryness. The mouse was positioned within the field of view of the PET imager and a 30 min static acquisition was performed then the bed of the imager was moved within the CT module of the LabPET8 scanner, and a 2 min CT acquisition was performed. During PET imaging, the mouse was kept warm using pulsed hot air maintained at 32 °C, the environment temperature and respiration rate being monitored throughout the imaging procedure (PCSAM. Model 1025T Monitoring & Gating System, SA Instruments Inc.). Once the imaging procedure was completed, the mouse was placed in its cage to recuperate from anesthesia and returned to the housing facility.
PET data were acquired in list mode and reconstructed on a 200 x 200 x 168 grid with 0.3 x 0.3 x 0.3 mm^3 voxel size using 16 iterations and 8 subset of the 3D Ordered Subset Expectation Maximization (OSEM) algorithm. All PET images were corrected for the physical radionuclide decay of ^89Zr and random coincidences. […]
Once reconstructed the PET images were visually inspected to identify potential mSOD1 aggregates, which appear as discrete radiotracer spots within the spinal cord. […] The criteria for validity were that the spot was well defined within the spinal cord and not contaminated by radioactivity spilled in form the presence of the radiotracer in the anterior portion of the vertebra. […]
Once located region of interest (ROI) was then traced around these spots and the measure radiotracer content corrected for the partial volume effect (PVE) using the recovery coefficient and for spill-in from the presence of free ^89Zr in the anterior part of the vertebra (Fig. 4). […] The radioactivity content of m-SOD1 aggregated was expressed in terms of %ID/g.

Regarding “Degly-^89Zr-DFO-AP-101: ^89Zr-DFO-AP-101 in which the AP-101 antibody is deglycosylated”, the results for the “number of detected spots including false positive spots” value with mSOD1 aggregates (day 7 post administration) and with mSOD1 aggregates (day 10 post administration) were 6 spots and 12 spots, respectively.
Regarding “^89Zr-DFO-AP-101: AP-101 antibody, SCN-Bn-DFO as bifunctional chelator and ^89Zr as radionuclide; PET radiotracer”, the results for the “number of detected spots including false positive spots” value with mSOD1 aggregates (day 7 post administration) and in the assay on mSOD1 aggregates (day 10 post administration) were 6 spots and 18 spots, respectively.

B1: AP-101 (antibody, V domains shown)
VH: EVQLVESGAEVKKPGASVTLSCKASGYTFTAYYIHWVRQAREQGLEWMGVINPSTGTTFYAQNFPDRVSVTRDTSTSTVFMELHNLKSEDTAVYYCARAISEHGSGSYSPYYWGQGTLVTVSS
VL: SYVLTQPPSVSVSLGQMAAITCSGEALPKKYGYWYQQKPGQVPVLLIYRDVERPSGVPDRFSGSSSGTMVTLTISGVQAEDEADYYCLSADSSGTWVFGGGTKLTVL
Turning to B1, the half-maximal effective concentration (EC50) in the assay with denatured human SOD1 [1] came to 200 pM.

B2: ^natZr-DFO-AP-101 (antibody, human IgG1, V domains shown)
VH: EVQLVESGAEVKKPGASVTLSCKASGYTFTAYYIHWVRQAREQGLEWMGVINPSTGTTFYAQNFPDRVSVTRDTSTSTVFMELHNLKSEDTAVYYCARAISEHGSGSYSPYYWGQGTLVTVSS
VL: SYVLTQPPSVSVSLGQMAAITCSGEALPKKYGYWYQQKPGQVPVLLIYRDVERPSGVPDRFSGSSSGTMVTLTISGVQAEDEADYYCLSADSSGTWVFGGGTKLTVL
modifications: p-SCN-Bn desferoxamine (DFO) chelator conjugated randomly on lysine residues; p-SCN-Bn desferoxamine (DFO) chelator conjugated randomly on lysine residues, DFO:AP-101 ratio 1.1:1.0; natZr complexed
notes: also called DFO-α-miSOD1
As for B2, the figures for the EC50 with denatured human SOD1 [2] and with denatured human SOD1 [3] were 300 pM and 500 pM, respectively.

B3: Degly-^natZr-DFO-AP-101 (antibody, human IgG1, V domains shown)
VH: EVQLVESGAEVKKPGASVTLSCKASGYTFTAYYIHWVRQAREQGLEWMGVINPSTGTTFYAQNFPDRVSVTRDTSTSTVFMELHNLKSEDTAVYYCARAISEHGSGSYSPYYWGQGTLVTVSS
VL: SYVLTQPPSVSVSLGQMAAITCSGEALPKKYGYWYQQKPGQVPVLLIYRDVERPSGVPDRFSGSSSGTMVTLTISGVQAEDEADYYCLSADSSGTWVFGGGTKLTVL
modifications: DFO chelator conjugated randomly on lysine residues; Fc N-glycans removed with EndoS2 (GlycINATOR); DFO chelator on lysine residues, average 0.6 DFO per antibody; natZr complexed
In turn, B3 returned a concentration giving a half-maximal response (EC50) with denatured human SOD1 [2] of 2400 pM.
